17 compounds from patent EP1157985A1 (G.D. SEARLE & CO., priority 1996, dated 1997) can be followed below.

Assay [1] has as its target T1, Human vitronectin receptor (αvβ3) (Homo sapiens, UniProt P05106+P06756).
T1 construct: Human vitronectin receptor (αvβ3) was purified from human placenta; from tissue; host or cells: human placenta
The assay is described as follows: Vitronectin adhesion assay (solid phase receptor assay, competition with biotinylated vitronectin). It is filed as binding. The note with it: purified receptor from human placenta; 1 nM biotinylated vitronectin; highest concentration tested 1.0 x 10^-4 M; read-out: AvB3 IC50.

Assay [2] concerns the target T2, Human fibrinogen receptor (αIIbβ3) (Homo sapiens, UniProt P05106+P08514).
T2 construct: Human fibrinogen receptor (αIIbβ3) was purified from outdated platelets; from tissue; host or cells: outdated (human) platelets
The assay is described as follows: Purified IIb/IIIa receptor assay (solid phase receptor assay, competition with biotinylated vitronectin). It is filed as binding. The note with it: purified receptor from outdated platelets; 1 nM biotinylated vitronectin; highest concentration tested 1.0 x 10^-4 M. The method in brief:
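Platelet-derived αIIbβ3 coated at 1.0 µg/mL overnight at 4 °C in TBS with 1 mM Ca, Mg, Mn, pH 7.4, BSA-blocked; compounds competed with 1 nM biotinylated vitronectin (final; top compound 1.0 × 10^-4 M) for 2 h at room temperature. Bound ligand detected via HRP anti-biotin, A450; normalized to maximum binding, four-parameter fit.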

Each structure is given as a SMILES string. Structures can show the parent of a compound that is named as a salt.

By IC50 is commonly meant the concentration at which inhibition is half-maximal. For `N=C(N)Nc1cccc(C(=O)Nc2ccc(CC(NS(=O)(=O)c3cc(Cl)cc(Cl)c3)C(=O)O)cc2)c1` (stereo not shown) [Example 122, [4-[[[3-[(aminoiminomethyl)amino]phenyl]carbonyl]-amino]-N-[(3,5-dichlorophenyl)sulfonyl]phenyl-alanine, trifluoroacetate salt], the IC50 in assay [1] is 7 nM; in assay [2], 50 nM.

In the case of `N=C(N)Nc1cccc(C(=O)Nc2ccc(OC(C(=O)O)c3ccccc3)cc2)c1` (stereo not drawn) [Example 86, α-[4-[[[3-[(aminoiminomethyl)amino]phenyl]carbonyl]amino]phenoxy]benzeneacetic acid, trifluoroacetate salt], the IC50 is 307 nM in assay [1] and 3140 nM in assay [2].

Consider `CC(CC(=O)O)c1ccc(NC(=O)c2cccc(NC(=N)N)c2)cc1` (stereo not drawn) [Example 31, 4-[[[3-[(aminoiminomethyl)amino]phenyl]. carbonyl]amino]-β-methylbenzenepropanoic acid, trifluoroacetate salt], for which the IC50 in assay [1] worked out at 114 nM; in assay [2] it was 66.5 nM.

Consider `COc1cc(NC(=O)c2cccc(NC3=NCCCN3)c2)ccc1CCC(=O)O` [Example 116, 2-methoxy-4-[[[3-[(1,4,5,6-tetrahydropyrimidin-2-yl)amino]phenyl]carbonyl]amino]benzenepropanoic acid, trifluoroacetate salt], for which the IC50 in assay [1] was 6 nM; in assay [2] it was 3180 nM.

Turning to `CS(=O)(=O)NC(Cc1ccc(NC(=O)c2cccc(NC(=N)N)c2)cc1)C(=O)O` (stereo not shown) [Example 48, trifluoroacetate salt], the values for the IC50 in assay [1] and in assay [2] were 0.63 nM and 15.6 nM, respectively.

For the compound `CC(C)CC(=O)NC(Cc1ccc(NC(=O)c2cc(NC(=N)N)cc(C(F)(F)F)c2)cc1)C(=O)O` (stereo not shown) [Example 108, 4-[[[3-[(aminoiminomethyl)amino]-5-(trifluoromethyl)-phenyl]carbonyl]amino]-N-(3-methyl-1-oxobutyl) phenylalanine, trifluoroacetate salt], the IC50 stood at 4 nM in assay [1] and 109 nM in assay [2].

Turning to `CC(C)OC(=O)NC(Cc1ccc(NC(=O)c2cccc(NC3=NC(=O)CN3)c2)cc1)C(=O)O` (stereo not shown) [Example 77, 4-[[[3-[(4,5-dihydro-4-oxo-lH-imidazol-2-yl)amino]phenyl]carbonyl]amino]-N-[(1-methylethoxy)-carbonyl]phenylalanine], the IC50 in assay [1] was determined as 1.6 nM; in assay [2], 1260 nM.

Regarding `N=C(N)Nc1cccc(C(=O)Nc2ccc(CC(N)C(=O)O)cc2)c1` (stereo not shown) [Example 65, 4-[[[3-[(aminoiminomethyl)amino]phenyl]carbonyl]amino]phenylalanine, trifluoroacetate salt], the IC50 was found to be 4760 nM in assay [1] and 21900 nM in assay [2].

For `N=C(N)Nc1cccc(NC(=O)Cc2ccc(OCC(=O)O)cc2)c1` [Example 84, [4-[2-[[3-[(aminoiminomethyl)amino]phenyl]amino]-2-oxoethyl]phenoxy]acetic acid, trifluoroacetate salt], the IC50 in assay [1] worked out at 16300 nM; in assay [2] it was 486 nM.

`CCCCS(=O)(=O)NC(Cc1ccc(NC(=O)c2cccc(NC(=N)N)c2)cc1)C(=O)O` (stereo not shown) [Example 52, trifluoroacetate salt]: the IC50 amounted to 0.33 nM in assay [1] and 1.88 nM in assay [2].

For the compound `N=C(N)Nc1cccc(C(=O)Nc2ccc(CC(NC(=O)c3ccccc3)C(=O)O)cc2)c1` (stereo not shown) [Example 47, trifluoroacetate salt], the IC50 in assay [1] came out at 5.89 nM; in assay [2], 51.1 nM.

As for `CCOC(=O)C(Cc1ccc(NC(=O)c2cccc(NC(=N)N)c2)cc1)NC(=O)OC(C)(C)C` (stereo not shown) [Example 44, trifluoroacetate salt], the IC50 in assay [1] was determined as 120 nM; in assay [2], 4310 nM.

On to `N=C(N)Nc1cccc(S(=O)(=O)Nc2ccc(CCC(=O)O)cc2)c1` [Example 62, 4-[[[3-[(aminoiminomethyl)amino]phenyl]sulfonyl]amino]benzenepropanoic acid, trifluoroacetate salt], for which the IC50 stood at 28100 nM in assay [1] and 14800 nM in assay [2].

As for `CCOC(=O)CS(=O)(=O)c1ccc(NC(=O)c2cccc(NC(=N)N)c2)cc1` [Example 80, ethyl [[4-[[[3-[(aminoiminomethyl)amino]phenyl]carbonyl]amino]phenyl]sulfonyl]acetate, monohydrate trifluoroacetate salt], the IC50 in assay [1] worked out at 44200 nM; in assay [2] it was 19800 nM.

For the compound `N=C(N)c1cccc(C(=O)NCc2ccc(CCC(=O)O)cc2)c1` [Example 19, 4-[[[[3-(aminoiminomethyl)phenyl]carbonyl]amino]methyl]benzenepropanoic acid, trifluoroacetate salt], the IC50 in assay [1] was above 100000 nM; in assay [2], 1780 nM.

Consider `CC(C)OC(=O)NC(Cc1ccc(NC(=O)c2cccc(Nc3noc(N)n3)c2)cc1)C(=O)O` (racemic) [Example 104, (±) 4-[[[3-[(5-amino-1,2,4-oxadiazol-3-yl)amino]-phenyl]carbonyl]amino]-N-[(1-methylethoxy)carbonyl]phenylalanine, trifluoroacetate salt], for which the IC50 came out at 506 nM in assay [1] and 1600 nM in assay [2].

As for `CCCCS(=O)(=O)N[C@@H](Cc1ccc(NC(=O)c2cccc(NC3=NCCCCC3)c2)cc1)C(=O)O` [Example 10, N-(butylsulfonyl)-4-[[[3-[(3,4,5,6-tetrahydro-2H-azepin-7-yl)-amino]phenyl]carbonyl]amino]phenylalanine, trifluoroacetate salt], the IC50 in assay [1] was found to be 1.17 nM; in assay [2], 26.9 nM.
